Activity calls are given as the source filed them. The rule behind the calls is not given here.
Legend:
Mus musculus [1] = assay: Antiinflammatory activity in ICR mouse assessed as reduction in LPS-induced neutrophil level in BALF at 0.5 mg/kg, ip administered 18 hrs before LPS-stimulation and measured after 24 hrs by FACS analysis relative to control; assay type: functional; settings: time 42 hrs
Mus musculus [2] = assay: Antiinflammatory activity in ICR mouse assessed as reduction in LPS-induced MMP-9 mRNA expression in lungs at 0.5 mg/kg, INH administered 18 hrs before LPS-stimulation and measured after 24 hrs by qRT-PCR analysis; assay type: functional, organism-based; settings: time 42.0 hrs
Mus musculus [3] = assay: Antiinflammatory activity in ICR mouse assessed as reduction in LPS-induced neutrophil infiltration in lungs at 0.5 mg/kg, ip administered 18 hrs before LPS-stimulation and measured after 24 hrs by H and E staining based imaging analysis relative to control; assay type: functional; settings: time 42 hrs
Mus musculus [4] = assay: Antiinflammatory activity in ICR mouse assessed as reduction in LPS-induced IL-1beta expression in lungs at 0.5 mg/kg, INH administered 18 hrs before LPS-stimulation and measured after 24 hrs by Western blot analysis; assay type: functional, organism-based; settings: time 42.0 hrs
Mus musculus [5] = assay: Antiinflammatory activity in ICR mouse assessed as reduction in LPS-induced TGF-beta1 mRNA expression in lungs at 0.5 mg/kg, INH administered 18 hrs before LPS-stimulation and measured after 24 hrs by qRT-PCR analysis; assay type: functional, organism-based; settings: time 42.0 hrs
Mus musculus [6] = assay: Antiinflammatory activity in ICR mouse assessed as reduction in LPS-induced macrophage level in BALF at 0.5 mg/kg, ip administered 18 hrs before LPS-stimulation and measured after 24 hrs by FACS analysis relative to control; assay type: functional; settings: time 42 hrs
Mus musculus [7] = assay: Antiinflammatory activity in ICR mouse assessed as reduction in LPS-induced IL-8 mRNA expression in lungs at 0.5 mg/kg, INH administered 18 hrs before LPS-stimulation and measured after 24 hrs by qRT-PCR analysis; assay type: functional, organism-based; settings: time 42.0 hrs
Mus musculus [8] = assay: Antiinflammatory activity in ICR mouse assessed as reduction in LPS-induced IL-1beta expression in serum at 0.5 mg/kg, ip administered 18 hrs before LPS-stimulation and measured after 24 hrs by ELISA; assay type: functional, organism-based; settings: time 42.0 hrs
Mus musculus [9] = assay: Antiinflammatory activity in ICR mouse assessed as reduction in LPS-induced MMP-9 mRNA expression in lungs at 0.5 mg/kg, ip administered 18 hrs before LPS-stimulation and measured after 24 hrs by qRT-PCR analysis; assay type: functional, organism-based; settings: time 42.0 hrs
Mus musculus [10] = assay: Antiinflammatory activity in ICR mouse assessed as reduction in LPS-induced neutrophil level in BALF at 0.5 mg/kg, INH administered 18 hrs before LPS-stimulation and measured after 24 hrs by FACS analysis relative to control; assay type: functional; settings: time 42 hrs
Mus musculus [11] = assay: Antiinflammatory activity in ICR mouse assessed as reduction in LPS-induced lymphocyte level in BALF at 0.5 mg/kg, ip administered 18 hrs before LPS-stimulation and measured after 24 hrs by FACS analysis relative to control; assay type: functional; settings: time 42 hrs
Mus musculus [12] = assay: Antiinflammatory activity in ICR mouse assessed as reduction in LPS-induced neutrophil infiltration in lungs at 0.5 mg/kg, INH administered 18 hrs before LPS-stimulation and measured after 24 hrs by H and E staining based imaging analysis relative to control; assay type: functional; settings: time 42 hrs
Mus musculus [13] = assay: Antiinflammatory activity in ICR mouse assessed as reduction in LPS-induced IL-18 expression in serum at 0.5 mg/kg, ip administered 18 hrs before LPS-stimulation and measured after 24 hrs by ELISA; assay type: functional, organism-based
Mus musculus [14] = assay: Antiinflammatory activity in ICR mouse assessed as reduction in LPS-induced IL-1beta expression in lungs at 0.5 mg/kg, ip administered 18 hrs before LPS-stimulation and measured after 24 hrs by Western blot analysis; assay type: functional, organism-based; settings: time 42.0 hrs
Mus musculus [15] = assay: Antiinflammatory activity in ICR mouse assessed as reduction in LPS-induced IL-1beta mRNA expression in lungs at 0.5 mg/kg, ip administered 18 hrs before LPS-stimulation and measured after 24 hrs by qRT-PCR analysis; assay type: functional, organism-based; settings: time 42.0 hrs
Mus musculus [16] = assay: Antiinflammatory activity in ICR mouse assessed as reduction in LPS-induced caspase-1 expression in lungs at 0.5 mg/kg, ip administered 18 hrs before LPS-stimulation and measured after 24 hrs by Western blot analysis; assay type: functional, organism-based; settings: time 42.0 hrs
Mus musculus [17] = assay: Antiinflammatory activity in ICR mouse assessed as reduction in LPS-induced IL-1beta expression in serum at 0.5 mg/kg, INH administered 18 hrs before LPS-stimulation and measured after 24 hrs by ELISA; assay type: functional, organism-based; settings: time 42.0 hrs
Mus musculus [18] = assay: Antiinflammatory activity in ICR mouse assessed as reduction in LPS-induced IL-1beta mRNA expression in lungs at 0.5 mg/kg, INH administered 18 hrs before LPS-stimulation and measured after 24 hrs by qRT-PCR analysis; assay type: functional, organism-based; settings: time 42.0 hrs
Mus musculus [19] = assay: Antiinflammatory activity in ICR mouse assessed as reduction in LPS-induced lymphocyte level in BALF at 0.5 mg/kg, INH administered 18 hrs before LPS-stimulation and measured after 24 hrs by FACS analysis relative to control; assay type: functional; settings: time 42 hrs
Mus musculus [20] = assay: Antiinflammatory activity in ICR mouse assessed as reduction in LPS-induced macrophage level in BALF at 0.5 mg/kg, INH administered 18 hrs before LPS-stimulation and measured after 24 hrs by FACS analysis relative to control; assay type: functional; settings: time 42 hrs
Mus musculus [21] = assay: Antiinflammatory activity in ICR mouse assessed as reduction in LPS-induced IL-8 mRNA expression in lungs at 0.5 mg/kg, ip administered 18 hrs before LPS-stimulation and measured after 24 hrs by qRT-PCR analysis; assay type: functional, organism-based; settings: time 42.0 hrs
Mus musculus [22] = assay: Antiinflammatory activity in ICR mouse assessed as reduction in LPS-induced TGF-beta1 mRNA expression in lungs at 0.5 mg/kg, ip administered 18 hrs before LPS-stimulation and measured after 24 hrs by qRT-PCR analysis; assay type: functional, organism-based; settings: time 42.0 hrs
Mus musculus [23] = assay: Antiinflammatory activity in ICR mouse assessed as reduction in LPS-induced IL-18 expression in serum at 0.5 mg/kg, INH administered 18 hrs before LPS-stimulation and measured after 24 hrs by ELISA; assay type: functional, organism-based; settings: time 42.0 hrs
Mus musculus [24] = assay: Antiinflammatory activity in ICR mouse assessed as reduction in LPS-induced caspase-1 expression in lungs at 0.5 mg/kg, INH administered 18 hrs before LPS-stimulation and measured after 24 hrs by Western blot analysis; assay type: functional, organism-based; settings: time 42.0 hrs

Question: What does the source list for `C[C@@H]1C[C@H]2[C@@H]3CCC4=CC(=O)C=C[C@]4(C)[C@@]3(F)[C@@H](O)C[C@]2(C)[C@@]1(O)C(=O)CO` [DEXAMETHASONE]?
Answer: inhibition in vivo at 0.5 mg/kg (Mus musculus [1]): 66.9%; inhibition (Mus musculus [2]): Active; inhibition in vivo at 0.5 mg/kg (Mus musculus [3]): 58.7%; inhibition (Mus musculus [4]): Active; inhibition (Mus musculus [5]): Active; inhibition in vivo at 0.5 mg/kg (Mus musculus [6]): 75.1%; inhibition (Mus musculus [7]): Active; inhibition (Mus musculus [8]): Active; inhibition (Mus musculus [9]): Active; inhibition in vivo at 0.5 mg/kg (Mus musculus [10]): 72.9%; inhibition in vivo at 0.5 mg/kg (Mus musculus [11]): 46.1%; inhibition in vivo at 0.5 mg/kg (Mus musculus [12]): 55.9%; inhibition (Mus musculus [13]): Active; inhibition (Mus musculus [14]): Active; inhibition (Mus musculus [15]): Active; inhibition (Mus musculus [16]): Active; inhibition (Mus musculus [17]): Active; inhibition (Mus musculus [18]): Active; inhibition in vivo at 0.5 mg/kg (Mus musculus [19]): 30.6%; inhibition in vivo at 0.5 mg/kg (Mus musculus [20]): 40.9%; inhibition (Mus musculus [21]): Active; inhibition (Mus musculus [22]): Active; inhibition (Mus musculus [23]): Active; inhibition (Mus musculus [24]): Active

— ChEMBL document CHEMBL4765476, “MCC950, a NLRP3 inhibitor, ameliorates lipopolysaccharide-induced lung inflammation in mice” (Bioorg Med Chem, 2021)
